Data taken from patent publication US10718761B2, “Phosphatase or kinase activity detection composition and detection method” (INDUSTRY-UNIVERSITY COOPERATION FOUNDATION HANYANG …, priority 2014, dated 2020).

System: TAMRA-PEPPKA(p)
Assay: Zn(II)-mediated QD-FRET between QD525 and TAMRA-labelled phosphopeptide
Assay type: binding
Conditions: QD 2 nM
Method: A synthetic peptide substrate labeled with 5(6)-carboxytetramethylrhodamine at the N-terminus (TAMRA-LRRASLG; TAMRA-PEPPKA) was compared with its phosphorylated form (TAMRA-LRRApSLG; TAMRA-PEPPKA(p)) (FIG. 12B). The FRET ratio was determined by the acceptor (FA) emission area (integrated from 550 to 650 nm) relative to the donor (FD) emission area (integrated from 450 to 550 nm). The concentrations of QD, TAMRA-PEPPKA(p) (or TAMRA-PEPPKA), and ZnCl2 were 2 nM, 80 nM and 100 μM, respectively. The QD-FRET spectra were obtained at an excitation wavelength of 380 nm.
The change in FRET between QD and TAMRA-PEPPKA(p) according to a function of Zn^2+ concentration was calculated. Furthermore, the relative FRET percentage was calculated by dividing the experimental FRET ratio by the maximal FRET ratio (0.74). The concentrations of QD and TAMRA-PEPPKA(p) were 2 nM and 80 nM, respectively. Excitation/emission wavelengths of QD-FRET (FIG. 12C (i)), QD (FIG. 12C (ii)), and TAMRA-PEPPKA(p) (FIG. 12C (iii)) were obtained at 380/580, 380/525, 530/580 nm, respectively.

Structure (SMILES): [Cl-].[Cl-].[Zn+2] [Zn(II), ZnCl2]
- FRET ratio (FA/FD) (TAMRA-PEPPKA(p) 80 nM, ZnCl2 100 μM, excitation 380 nm): 0.65
- Kd (free Zn(II) ions, TAMRA-PEPPKA(p) 80 nM (1:40 molar ratio), read-out: binding affinity Kd for TAMRA-PEPPKA(p), based on the FRET efficiency): 8.8 µM
